Data as given in patent US20250205204A1, “Transcription Factor Brn2 Inhibitory Compounds for Use as Therapeutics” (The University of British Columbia, priority 2021, published 2025).

Assays:
[1] = Metabolic stability in liver microsomes (MLM); type: in vitro ADME, mice; conditions: 0.25 mg/mL protein
Procedure, shortened: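 Mouse liver microsomes (0.25 mg/mL protein) in 50 mM potassium phosphate pH 7.4 at 37 °C with 1 µM compound, 1 mM NADPH, 0.1% DMSO; sampled 0–60 min in duplicate. LC-MS/MS parent depletion gives half-life; CL'int in mL/min/kg scaled with 45 mg protein/g liver, 90 g liver.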

[2] = biological target: T1, BRN2 (Homo sapiens, UniProt P20265); assay: Drug Affinity Responsive Target Stability (DARTS) assay; conditions: printed in BLI binding column; 42D^ENZR lysate
T1 sequence (P20265 1-443): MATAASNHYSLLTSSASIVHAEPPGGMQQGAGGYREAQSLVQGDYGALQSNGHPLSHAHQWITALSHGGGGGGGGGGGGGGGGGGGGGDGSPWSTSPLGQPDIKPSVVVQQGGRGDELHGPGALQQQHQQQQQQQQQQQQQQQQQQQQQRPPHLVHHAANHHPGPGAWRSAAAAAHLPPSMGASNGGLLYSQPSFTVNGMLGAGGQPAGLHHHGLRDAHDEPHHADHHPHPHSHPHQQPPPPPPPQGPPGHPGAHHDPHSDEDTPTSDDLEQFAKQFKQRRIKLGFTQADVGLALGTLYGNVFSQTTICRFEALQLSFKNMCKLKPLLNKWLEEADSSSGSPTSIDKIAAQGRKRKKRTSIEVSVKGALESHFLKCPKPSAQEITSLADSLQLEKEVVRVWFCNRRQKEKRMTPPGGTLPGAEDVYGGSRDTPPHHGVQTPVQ
Method: Step 2: Drug Affinity Responsive Target Stability (DARTS) Assay
This in cell assay provides a yes/no answer to direct interaction between BRN2 inhibitor and protein.
1) Prepare and place the following on ice: • Pronase • TNC 10× • 500 mM Tris-HCl (pH 8.0) • 500 mM NaCl, 100 mM CaCl2 • DMSO • Drug • 10 mL NP40+Protease inhibitor+Phosphatase inhibitor solution (can store in 4° C. and use for up to 4 weeks): • 2 mL NP40 5× • 8 mL ddH2O • 1 PhosphoSTOP™ pill • 200 uL protease inhibitor 50×
2) Remove the growth medium from the cell plate (42D^ENZR) and add 10 mL of cold PBS/vanadate.
3) Scrape the cells. Remove the PBS-cell solution and add in a falcon tube.
4) Name a new 1.5 ml Eppendorf tube and put on ice to pre-chill.
5) Centrifuge the cells at 1500 for 5 minutes at 4° C. Remove supernatant and re-suspend the cells in 600 uL NP40 lysis buffer by pipetting up and down. If the cell pellet is small use less volume, for example 300 μl)
6) Transfer the lysing cells into the pre-chilled Eppendorf tube. Incubate on ice for 20 minutes. If not continuing the DARTS on the same day, you can put the lysate in −30 and work on it later.
Preparing Cell Lysates for DARTS:
7) Centrifuge the tube at maximum speed for 25-30 minutes at 4° C.
8) Discard the pellet (either transfer the supernatant in a new tube or just take out the pellet). […]
20) The samples are ready for Western blot gel running. […]

[3] = system: 42D^ENZR cells; assay: Cell proliferation, BRN2 expressing 42D cells (crystal violet); type: cell-based; conditions: 42D (express BRN2) versus 16D (no BRN2) cells, about 72 hours; result in words
Procedure, shortened: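 42D^ENZR (~7000/well) and 16D^CRPC (~5000/well) cells plated, compound added next day from 3× media stocks. After ~72 hours, cells fixed with glutaraldehyde, stained with crystal violet, dye eluted in Sorensen solution; absorbance read at 590 nm.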

In the case of `FC(F)(F)c1ccc2c(c1)/C(=N\Nc1nc3ccccc3s1)CC2` [7-36], the half-life at 1 μM ([1]; mouse, liver microsomes, pH 7.4, 1 μM compound, read-out: T1/2 in mins (MLM)) is reported as greater than 1 h, the “Met Stab % (60 mins) MLM” value ([1]; percent remaining at 60 min, 1 μM compound, 1 mM NADPH) is reported as 78% and the “binding observed using DARTS assay” value [2] is reported as “DARTS- good binding”. The “Growth Specificity” value [3] was “Specific to 42D, but weak activity”.
